Test results: the supplement of paper PMC10307832

How the values were obtained:
Assay in all cases: relative viability (nuclei count vs DMSO), 5 days (fraction); higher = more cells survive
Linsitinib + Lapatinib = compound: C[C@]1(O)C[C@@H](c2nc(-c3ccc4ccc(-c5ccccc5)nc4c3)c3c(N)nccn32)C1 [Linsitinib] + CS(=O)(=O)CCNCc1ccc(-c2ccc3ncnc(Nc4ccc(OCc5cccc(F)c5)c(Cl)c4)c3c2)o1 [Lapatinib] (partner 2 µM)
Method in brief: (§1)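 Nuclei were stained with Hoechst during a one-step fixation (final 0.05% Triton X-100, 1% formaldehyde, 1 ug/ml Hoechst) carried out 5 days after dosing, then counted on 4× images. The cells, lung cancer lines in 1536-well plates, had been dosed by pin tool the day after seeding with one drug alone or a fixed anchor-drug dose plus five library-drug doses (not always all listed) in √10 steps. Relative viability is the nuclei count in treated wells divided by that in vehicle wells, and each value is the median of duplicate plates.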

Linsitinib + Olaparib = compound: C[C@]1(O)C[C@@H](c2nc(-c3ccc4ccc(-c5ccccc5)nc4c3)c3c(N)nccn32)C1 [Linsitinib] + O=C(c1cc(Cc2n[nH]c(=O)c3ccccc23)ccc1F)N1CCN(C(=O)C2CC2)CC1 [Olaparib] (partner 8 µM)
Method in brief: as §1

Linsitinib + Dasatinib = compound: C[C@]1(O)C[C@@H](c2nc(-c3ccc4ccc(-c5ccccc5)nc4c3)c3c(N)nccn32)C1 [Linsitinib] + Cc1nc(Nc2ncc(C(=O)Nc3c(C)cccc3Cl)s2)cc(N2CCN(CCO)CC2)n1 [Dasatinib] (partner 0.075 µM)
Method in brief: as §1

Ispinesib + Navitoclax = compound: Cc1ccc(C(=O)N(CCCN)[C@@H](c2nc3cc(Cl)ccc3c(=O)n2Cc2ccccc2)C(C)C)cc1 [Ispinesib] + CC1(C)CCC(c2ccc(Cl)cc2)=C(CN2CCN(c3ccc(C(=O)NS(=O)(=O)c4ccc(N[C@H](CCN5CCOCC5)CSc5ccccc5)c(S(=O)(=O)C(F)(F)F)c4)cc3)CC2)C1 [Navitoclax] (partner 0.5 µM)
Method in brief: as §1

Q: How did the relative viability (Linsitinib + Lapatinib; first compound 0.01 µM) turn out when UMC-11 was run?
A: 0.889

Q: And the relative viability (Linsitinib + Lapatinib; first compound 0.03162 µM)?
A: 0.871

Q: What about the relative viability (Linsitinib + Lapatinib; first compound 0.1 µM) of the same cell line?
A: 1.08

Q: What about the relative viability (Linsitinib + Lapatinib; first compound 0.3162 µM) of the same cell line?
A: 0.303

Q: What about the relative viability (Linsitinib + Lapatinib; first compound 1 µM) of the same cell line?
A: 0.843

Q: And the relative viability (Linsitinib + Olaparib; first compound 0.01 µM)?
A: 0.361

Q: What about the relative viability (Linsitinib + Olaparib; first compound 0.03162 µM) of the same cell line?
A: 0.352

Q: And the relative viability (Linsitinib + Olaparib; first compound 0.1 µM)?
A: 0.421

Q: And the relative viability (Linsitinib + Olaparib; first compound 0.3162 µM)?
A: 0.273

Q: What about the relative viability (Linsitinib + Olaparib; first compound 1 µM) of the same cell line?
A: 0.329

Q: What about the relative viability (Linsitinib + Dasatinib; first compound 0.01 µM) of the same cell line?
A: 0.462

Q: And the relative viability (Linsitinib + Dasatinib; first compound 0.03162 µM)?
A: 0.44

Q: What about the relative viability (Linsitinib + Dasatinib; first compound 0.1 µM) of the same cell line?
A: 0.501

Q: What about the relative viability (Linsitinib + Dasatinib; first compound 1 µM) of the same cell line?
A: 0.438

Q: What about the relative viability (Ispinesib + Navitoclax; first compound 0.001 µM) of the same cell line?
A: 0.314

Q: What about the relative viability (Ispinesib + Navitoclax; first compound 0.003162 µM) of the same cell line?
A: 0.371

Q: And the relative viability (Ispinesib + Navitoclax; first compound 0.01 µM)?
A: 0.267

Q: And the relative viability (Ispinesib + Navitoclax; first compound 0.03162 µM)?
A: 0.176

Q: What about the relative viability (Ispinesib + Navitoclax; first compound 0.1 µM) of the same cell line?
A: 0.216
